Experimental data reported in patent US9624229B2, “Pyrimidine-2-amine compounds and their use as inhibitors of JAK kinases” (Rigel Pharmaceuticals, Inc., priority 2008, dated 2017).
Read-outs that look alike come from different tables or passages of the source.

Biological target: Ba/F3 V617F cells (Homo sapiens, UniProt O60674, V617F, cells depend on it)
Assay: Proliferation assay (Cell Titer-Glo, 72 h) utilizing Ba/F3 V617F cells
Format: cell-based, mouse
Procedure: Ba/F3 V617F cells are maintained and plated in RPMI with 10% FBS. Plating density for these cells is 1×10^5 cells/mL.
The cells were resuspended in a corresponding medium at a required cell density (see above). 100μ of cell suspension was added to each well of a flat bottom 96 well white plate. The compound was serially diluted in DMSO from 5 mM in 3-fold dilutions, and then diluted 1:250 in the RPMI 1640 medium containing 5% FBS and pen/strep. 100 μL of resulting 2× compound solution was added per well in duplicate and the cells were allowed to proliferate for 72 hours at 37° C.
Proliferation was measured using Cell Titer-Glo. The substrate was thawed and allowed to come to ambient temperature. After removal of top 100 μL of medium from each well, 100 μL of the premixed Cell Titer-Glo reagent was added to each well. The plates were mixed on an orbital shaker for three minutes to induce lysis and incubated at ambient temperature for an additional five minutes to allow the signal to equilibrate. The Luminescence was read on the Wallac Plate Reader.
The results of the ability of the compounds of the invention to inhibit JAK2 activity, when tested in the above assay utilizing Ba/F3 V617F cells, are shown in the following Tables 2-3 wherein the level of activity (i.e., the IC50) for each compound is indicated in Tables 2-3. The compound numbers in Tables 2-3 refers to the compounds disclosed herein as being prepared by the methods disclosed herein: […]

[1] = inhibition of JAK2 activity, proliferation of Ba/F3 V617F cells, read-out: IC50 (the source's name)
[2] = Ba/F3 V617F cells, proliferation, level of activity to inhibit JAK2, read-out: IC50 (the source's name)

Ba/F3 V617F cells, sequence (O60674 whole entry V617F): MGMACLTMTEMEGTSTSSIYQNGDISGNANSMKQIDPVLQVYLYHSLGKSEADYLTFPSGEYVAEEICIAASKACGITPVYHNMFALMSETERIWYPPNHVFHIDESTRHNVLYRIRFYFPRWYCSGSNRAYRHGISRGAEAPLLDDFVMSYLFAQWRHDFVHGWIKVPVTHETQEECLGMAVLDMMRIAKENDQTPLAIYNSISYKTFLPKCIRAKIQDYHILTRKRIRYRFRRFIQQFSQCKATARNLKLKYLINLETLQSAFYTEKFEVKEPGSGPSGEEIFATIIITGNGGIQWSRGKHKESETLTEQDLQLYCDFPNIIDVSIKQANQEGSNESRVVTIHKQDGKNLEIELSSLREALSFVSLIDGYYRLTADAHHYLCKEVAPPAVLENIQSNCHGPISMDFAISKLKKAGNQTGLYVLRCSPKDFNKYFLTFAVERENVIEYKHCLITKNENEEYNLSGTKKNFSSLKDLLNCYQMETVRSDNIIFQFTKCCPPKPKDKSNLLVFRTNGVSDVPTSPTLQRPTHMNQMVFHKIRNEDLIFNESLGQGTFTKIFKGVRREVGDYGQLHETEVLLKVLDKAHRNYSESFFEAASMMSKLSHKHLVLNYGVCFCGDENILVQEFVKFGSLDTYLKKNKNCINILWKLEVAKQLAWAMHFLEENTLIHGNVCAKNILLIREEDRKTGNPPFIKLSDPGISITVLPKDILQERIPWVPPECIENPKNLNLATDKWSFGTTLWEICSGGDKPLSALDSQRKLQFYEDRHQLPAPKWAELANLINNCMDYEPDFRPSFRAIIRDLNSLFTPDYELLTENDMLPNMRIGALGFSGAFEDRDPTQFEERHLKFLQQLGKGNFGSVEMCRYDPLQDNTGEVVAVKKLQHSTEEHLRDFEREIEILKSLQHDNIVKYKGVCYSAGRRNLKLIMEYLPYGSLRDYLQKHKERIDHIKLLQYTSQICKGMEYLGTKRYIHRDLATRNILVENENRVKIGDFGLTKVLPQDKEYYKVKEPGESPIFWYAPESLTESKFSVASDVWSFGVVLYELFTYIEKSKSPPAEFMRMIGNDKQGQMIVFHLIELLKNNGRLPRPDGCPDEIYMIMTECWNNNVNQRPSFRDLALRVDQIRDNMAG

Row | GI50 [1] [µM] | GI50 [2] [µM] | Structure (SMILES)
1 | 1 to 10 | – | CN(C)c1ccc(-c2ccnc(Nc3ccc(N4C[C@@H]5C[C@H]4CN5C)nc3)n2)cc1 [compound 56, 4-(4-(dimethylamino)phenyl)-N-(6-((1S,4S)-5-methyl-2,5-diazabicyclo[2.2.1]heptan-2-yl)pyridin-3-yl)pyrimidin-2-amine]
2 | 1 to 10 | – | Cc1cc(-c2ccnc(Nc3ccc(N4C[C@@H]5C[C@H]4CN5C)nc3)n2)cnc1N1CCOCC1 [compound 58, 4-(5-methyl-6-(morpholin-4-yl)pyridin-3-yl)-N-(6-((1S,4S)-5-methyl-2,5-diazabicyclo[2.2.1]heptan-2-yl)pyridin-3-yl)pyrimidin-2-amine]
3 | < 1 | – | Cc1cc(Nc2nccc(-c3ccc(N(C)C)nc3)n2)cnc1N1C[C@@H]2C[C@H]1CN2C [compound 61, 4-(6-(dimethylamino)pyridin-3-yl)-N-(5-methyl-6-((1S,4S)-5-methyl-2,5-diazabicyclo[2.2.1]heptan-2-yl)pyridin-3-yl)pyrimidin-2-amine]
4 | 1 to 10 | – | Cc1cc(Nc2nccc(-c3ccc(N(C)C)cc3)n2)cnc1N1C[C@@H]2C[C@H]1CN2C [compound 62]
5 | 1 to 10 | – | CC(=O)N1CCN(c2ccc(-c3ccnc(Nc4cnc(N5C[C@@H]6C[C@H]5CN6C)c(C)c4)n3)cn2)CC1 [compound 63, 4-(6-(4-acetylpiperazin-1-yl)pyridin-3-yl)-N-(5-methyl-6-((1S,4S)-5-methyl-2,5-diazabicyclo[2.2.1]heptan-2-yl)pyridin-3-yl)pyrimidin-2-amine]
6 | < 1 | – | Cc1cc(Nc2nccc(-c3cnc4c(c3)OCCN4C)n2)cnc1N1C[C@@H]2C[C@H]1CN2C [compound 65, 4-(4-methyl-3,4-dihydro-2H-pyrido[3,2-b][1,4]oxazin-7-yl)-N-(5-methyl-6-((1S,4S)-5-methyl-2,5-diazabicyclo[2.2.1]heptan-2-yl)pyridin-3-yl)pyrimidin-2-amine]
7 | – | < 1 | Cc1cnc(Nc2ccc(N3C[C@@H]4C[C@H]3CN4C)c(F)c2)nc1-c1ccc(N2CCOCC2)nc1 [compound 68, 5-methyl-4-(6-(morpholin-4-yl)pyridin-3-yl)-N-(3-fluoro-4-((1S,4S)-5-methyl-2,5-diazabicyclo[2.2.1]heptan-2-yl)phenyl)pyrimidin-2-amine]
8 | – | < 1 | Cc1cc(Nc2nccc(-c3ccc(N4CCOCC4)nc3)n2)ccc1N1CC2(C)CN(C)CC(C)(C1)C2 [compound 75, 4-(6-(morpholin-4-yl)pyridin-3-yl)-N-(3-methyl-4-(1,5,7-trimethyl-3,7-diazabicyclo[3.3.1]nonan-3-yl)phenyl)pyrimidin-2-amine]

The remaining lines, values behind:

Row | Structure (SMILES) | GI50 [1] [µM] | GI50 [2] [µM]
9 | CC(=O)Nc1ccc(-c2ccnc(Nc3ccc(N4C[C@@H]5C[C@H]4CN5C)nc3)n2)cn1 [compound 55, 4-(6-(methylcarbonylamino)pyridin-3-yl)-N-(6-((1S,4S)-5-methyl-2,5-diazabicyclo[2.2.1]heptan-2-yl)pyridin-3-yl)pyrimidin-2-amine] | 1 to 10 | –
10 | CC(=O)N1CCN(c2ccc(-c3ccnc(Nc4ccc(N5C[C@@H]6C[C@H]5CN6C)nc4)n3)cn2)CC1 [compound 57, 4-(6-(4-acetylpiperazin-1-yl)pyridin-3-yl)-N-(6-((1S,4S)-5-methyl-2,5-diazabicyclo[2.2.1]heptan-2-yl)pyridin-3-yl)pyrimidin-2-amine] | 1 to 10 | –
11 | Cc1cc(-c2ccnc(Nc3ccc(N4C[C@@H]5C[C@H]4CN5C)c(F)c3)n2)cnc1N1CCOCC1 [compound 59, 4-(5-methyl-6-(morpholin-4-yl)pyridin-3-yl)-N-(3-fluoro-4-((1S,4S)-5-methyl-2,5-diazabicyclo[2.2.1]heptan-2-yl)phenyl)pyrimidin-2-amine] | – | < 1
12 | Cc1cc(Nc2nccc(-c3cnc(N4CCOCC4)c(C)c3)n2)ccc1N1C[C@@H]2C[C@H]1CN2C [compound 60, 4-(5-methyl-6-(morpholin-4-yl)pyridin-3-yl)-N-(3-methyl-4-((1S,4S)-5-methyl-2,5-diazabicyclo[2.2.1]heptan-2-yl)phenyl)pyrimidin-2-amine] | – | < 1
13 | Cc1cc(-c2ccnc(Nc3cnc(N4C[C@@H]5C[C@H]4CN5C)c(C)c3)n2)cnc1N1CCOCC1 [compound 64, 4-(5-methyl-6-(morpholin-4-yl)pyridin-3-yl)-N-(5-methyl-6-((1S,4S)-5-methyl-2,5-diazabicyclo[2.2.1]heptan-2-yl)pyridin-3-yl)pyrimidin-2-amine] | < 1 | –
14 | Cc1cc(Nc2nccc(-c3ccc(N4CCOCC4)nc3)n2)cnc1N1C[C@@H]2C[C@H]1CN2C [compound 66, 4-(6-(morpholin-4-yl)pyridin-3-yl)-N-(5-methyl-6-((1S,4S)-5-methyl-2,5-diazabicyclo[2.2.1]heptan-2-yl)pyridin-3-yl)pyrimidin-2-amine] | 1 to 10 | –
15 | Cc1cc(Nc2ncc(C)c(-c3ccc(N4CCOCC4)nc3)n2)ccc1N1C[C@@H]2C[C@H]1CN2C [compound 67, 5-methyl-4-(6-(morpholin-4-yl)pyridin-3-yl)-N-(3-methyl-4-((1S,4S)-5-methyl-2,5-diazabicyclo[2.2.1]heptan-2-yl)phenyl)pyrimidin-2-amine] | – | < 1
16 | CN1C[C@@H]2C[C@H]1CN2c1ccc(Nc2nccc(-c3ccc(NCCN4CCOCC4)nc3)n2)cc1 [compound 69, 4-(6-(2-(morpholin-4-yl)ethyl)aminopyridin-3-yl)-N-(4-((1S,4S)-5-methyl-2,5-diazabicyclo[2.2.1]heptan-2-yl)phenyl)pyrimidin-2-amine] | – | 1 to 10
17 | CN1C[C@@H]2C[C@H]1CN2c1ccc(Nc2nccc(-c3ccc(NCCN4CCOCC4)nc3)n2)cc1F [compound 70, 4-(6-(2-(morpholin-4-yl)ethyl)aminopyridin-3-yl)-N-(3-fluoro-4-((1S,4S)-5-methyl-2,5-diazabicyclo[2.2.1]heptan-2-yl)phenyl)pyrimidin-2-amine] | – | < 1
18 | Cc1cc(Nc2nccc(-c3cnc4c(c3)OC(C)(C)C(=O)N4)n2)ccc1N1C[C@H]2C[C@@H]1CN2C [compound 71, 4-(2,2-dimethyl-3-oxo-3,4-dihydro-2H-pyrido[3,2-b][1,4]oxazin-7-yl)-N-(3-methyl-4-((1R,4R)-5-methyl-2,5-diazabicyclo[2.2.1]heptan-2-yl)phenyl)pyrimidin-2-amine] | – | < 1
19 | Cc1cc(Nc2nccc(-c3ccc(N4CCOCC4)nc3)n2)ccc1N1C[C@H]2C[C@@H]1CN2C [compound 72, 4-(6-(morpholin-4-yl)pyridin-3-yl)-N-(3-methyl-4-((1R,4R)-5-methyl-2,5-diazabicyclo[2.2.1]heptan-2-yl)phenyl)pyrimidin-2-amine] | – | < 1
20 | CN1C[C@H]2C[C@@H]1CN2c1ccc(Nc2nccc(-c3cnc4c(c3)OC(C)(C)C(=O)N4)n2)cc1F [compound 73, 4-(2,2-dimethyl-3-oxo-3,4-dihydro-2H-pyrido[3,2-b][1,4]oxazin-7-yl)-N-(3-fluoro-4-((1R,4R)-5-methyl-2,5-diazabicyclo[2.2.1]heptan-2-yl)phenyl)pyrimidin-2-amine] | – | < 1
21 | CN1C[C@H]2C[C@@H]1CN2c1ccc(Nc2nccc(-c3ccc(N4CCOCC4)nc3)n2)cc1F [compound 74, 4-(6-(morpholin-4-yl)pyridin-3-yl)-N-(3-fluoro-4-((1R,4R)-5-methyl-2,5-diazabicyclo[2.2.1]heptan-2-yl)phenyl)pyrimidin-2-amine] | – | < 1
22 | Cc1cc(Nc2nccc(-c3ccc(N(C)C)nc3)n2)ccc1N1CC2(C)CN(C)CC(C)(C1)C2 [compound 76, 4-(6-(dimethylamino)pyridin-3-yl)-N-(3-methyl-4-(1,5,7-trimethyl-3,7-diazabicyclo[3.3.1]nonan-3-yl)phenyl)pyrimidin-2-amine] | – | < 1
23 | Cc1cc(Nc2nccc(-c3ccc(NC4CCCCC4)nc3)n2)ccc1N1CC2(C)CN(C)CC(C)(C1)C2 [compound 77, 4-(6-(cyclohexylamino)pyridin-3-yl)-N-(3-methyl-4-(1,5,7-trimethyl-3,7-diazabicyclo[3.3.1]nonan-3-yl)phenyl)pyrimidin-2-amine] | – | < 1
24 | Cc1cc(Nc2nccc(-c3ccc(NC4CCCCC4)nc3)n2)ccc1N1C[C@@H]2C[C@H]1CN2C [compound 78, 4-(6-(cyclohexylamino)pyridin-3-yl)-N-(3-methyl-4-((1S,4S)-5-methyl-2,5-diazabicyclo[2.2.1]heptan-2-yl)phenyl)pyrimidin-2-amine] | – | < 1
25 | CN1C[C@@H]2C[C@H]1CN2c1ccc(Nc2nccc(-c3ccc(NC4CCCCC4)nc3)n2)cc1F [compound 79, 4-(6-(cyclohexylamino)pyridin-3-yl)-N-(3-fluoro-4-((1S,4S)-5-methyl-2,5-diazabicyclo[2.2.1]heptan-2-yl)phenyl)pyrimidin-2-amine] | – | < 1
26 | Cc1cc(Nc2nccc(-c3ccc(NCc4ccccc4)nc3)n2)ccc1N1C[C@@H]2C[C@H]1CN2C [compound 80, 4-(6-(benzylamino)pyridin-3-yl)-N-(3-methyl-4-((1S,4S)-5-methyl-2,5-diazabicyclo[2.2.1]heptan-2-yl)phenyl)pyrimidin-2-amine] | – | < 1
27 | CN1C[C@@H]2C[C@H]1CN2c1ccc(Nc2nccc(-c3ccc(NCc4ccccc4)nc3)n2)cc1F [compound 81, 4-(6-(benzylamino)pyridin-3-yl)-N-(3-fluoro-4-((1S,4S)-5-methyl-2,5-diazabicyclo[2.2.1]heptan-2-yl)phenyl)pyrimidin-2-amine] | – | < 1
